Experimental data: ChEMBL document CHEMBL1122054, “Lysosomotropic agents. 4. Carbobenzoxyglycylphenylalanyl, a new protease-sensitive masking group for introduction into cells” (J Med Chem, 1982)
Where a SMILES comes first, the peptide text is derived from it. [ ]: non-standard residue; d: D form. The star is where a group is joined. Cbz = O=C(OCc1ccccc1)*

Assays:
Mus musculus [1] = organism: Mus musculus; assay: Evaluated for the percent inhibition uptake of radiolabeled thymidine as a measure of inhibition of cell division against the SV40-transformed 3T3 cells after 4 hr at the concentration of 6x10E4M for experiment XI; assay type: functional, NIH3T3
Mus musculus [2] = organism: Mus musculus; assay: Evaluated for the percent inhibition uptake of radiolabeled thymidine as a measure of inhibition of cell division against the SV40-transformed 3T3 cells after 4 hr at the concentration of 1x10E4M for experiment XI; assay type: functional, NIH3T3
Mus musculus [3] = organism: Mus musculus; assay: Toxicity toward P-815 Mastocytoma cells after 5 hr was determined as percent of [51Cr]- release from labeled cells as a measure of cell death at a concentration of 0.104 mM (expt IV); assay type: functional
Mus musculus [4] = organism: Mus musculus; assay: Evaluated for the percent inhibition uptake of radiolabeled thymidine as a measure of inhibition of cell division against the SV40-transformed 3T3 cells at 4 hr at the concentration of 3Mx10E4 for expt VII; assay type: functional, NIH3T3
Mus musculus [5] = organism: Mus musculus; assay: Evaluated for the percent inhibition uptake of radiolabeled thymidine as a measure of inhibition of cell division against the SV40-transformed 3T3 cells at the concentration of 3*10^-4M after 8 hr; assay type: functional, NIH3T3
Mus musculus [6] = organism: Mus musculus; assay: Evaluated for the percent inhibition uptake of radiolabeled thymidine as a measure of inhibition of cell division against the SV40-transformed 3T3 cells at the concentration of 3*10^-4M after 3h; assay type: functional, NIH3T3
Mus musculus [7] = organism: Mus musculus; assay: Evaluated for the percent inhibition uptake of radiolabeled thymidine as a measure of inhibition of cell division against the SV40-transformed 3T3 cells after 4 hr at the concentration of 1x10E4M for experiment X; assay type: functional
Mus musculus [8] = organism: Mus musculus; assay: Toxicity toward P-815 Mastocytoma cells after 5 hr was determined as percent of [51Cr]- release from labeled cells as a measure of cell death at a concentration of 0.312 mM (expt IV); assay type: functional
Mus musculus [9] = organism: Mus musculus; assay: Evaluated for the percent inhibition uptake of radiolabeled thymidine as a measure of inhibition of cell division against the SV40-transformed 3T3 cells after 4 hr at the concentration of 3x10E4M for experiment XI; assay type: functional, NIH3T3
Mus musculus [10] = organism: Mus musculus; assay: Evaluated for the percent inhibition uptake of radiolabeled thymidine as a measure of inhibition of cell division against the SV40-transformed 3T3 cells at 4 hr at the concentration of 4Mx10E4 for expt VII; assay type: functional, NIH3T3
Mus musculus [11] = organism: Mus musculus; assay: Toxicity was evaluated for the compound at a concentration of 0.104 mM against […] Mastocytoma.; assay type: functional
Mus musculus [12] = organism: Mus musculus; assay: Toxicity toward P-815 Mastocytoma cells after 5 hr was determined as percent of [51Cr]- release from labeled cells as a measure of cell death at a concentration of 0.208 mM (expt IV); assay type: functional
Mus musculus [13] = organism: Mus musculus; assay: Evaluated for the percent inhibition uptake of radiolabeled thymidine as a measure of inhibition of cell division against the L1210 cells after 4 hr at the concentration of 0.5x10E4M; assay type: functional
Mus musculus [14] = organism: Mus musculus; assay: Evaluated for the percent inhibition uptake of radiolabeled thymidine as a measure of inhibition of cell division against the SV40-transformed 3T3 cells at 4 hr at the concentration of 1Mx10E4 for expt VII; assay type: functional, NIH3T3
Mus musculus [15] = organism: Mus musculus; assay: Evaluated for the percent inhibition uptake of radiolabeled thymidine as a measure of inhibition of cell division against the SV40-transformed 3T3 cells after 4 hr at the concentration of 3x10E4M for experiment X; assay type: functional, NIH3T3
Mus musculus [16] = organism: Mus musculus; assay: Evaluated for the percent inhibition uptake of radiolabeled leucine as a measure of inhibition of protein synthesis i.e., cell death against the SV40-transformed 3T3 cells at 4 hr at the concentration of 1Mx10E4 for expt VIII; assay type: functional, NIH3T3
Mus musculus [17] = organism: Mus musculus; assay: Evaluated for the percent inhibition uptake of radiolabeled thymidine as a measure of inhibition of cell division against the SV40-transformed 3T3 cells at 4 hr at the concentration of 3Mx10E4 for expt VI; assay type: functional, NIH3T3
Mus musculus [18] = organism: Mus musculus; assay: Evaluated for the percent inhibition uptake of radiolabeled thymidine as a measure of inhibition of cell division against the SV40-transformed 3T3 cells at 4 hr at the concentration of 10Mx10E4 for expt VII; assay type: functional, NIH3T3
Mus musculus [19] = organism: Mus musculus; assay: Evaluated for the percent inhibition uptake of radiolabeled thymidine as a measure of inhibition of cell division against the SV40-transformed 3T3 cells at 4 hr at the concentration of 6Mx10E4 for expt VII; assay type: functional, NIH3T3
Mus musculus [20] = organism: Mus musculus; assay: Evaluated for the percent inhibition uptake of radiolabeled thymidine as a measure of inhibition of cell division against the SV40-transformed 3T3 cells after 4 hr at the concentration of 6x10E4M for experiment X; assay type: functional
Mus musculus [21] = organism: Mus musculus; assay: Evaluated for the percent inhibition uptake of radiolabeled leucine as a measure of inhibition of protein synthesis i.e., cell death against the SV40-transformed 3T3 cells at 4 hr at the concentration of 3Mx10E4 for expt VIII; assay type: functional, NIH3T3
Mus musculus [22] = organism: Mus musculus; assay: Toxicity toward P-815 Mastocytoma cells after 5 hr was determined as percent of [51Cr]- release from labeled cells as a measure of cell death at a concentration of 0.208 mM (expt III); assay type: functional
Mus musculus [23] = organism: Mus musculus; assay: Toxicity was evaluated for the compound at a concentration of 0.208 mM against […] Mastocytoma.; assay type: functional
Mus musculus [24] = organism: Mus musculus; assay: Evaluated for the percent inhibition uptake of radiolabeled thymidine as a measure of inhibition of cell division against the SV40-transformed 3T3 cells at 4 hr at the concentration of 1Mx10E4 for expt VI; assay type: functional
Mus musculus [25] = organism: Mus musculus; assay: Evaluated for the percent inhibition uptake of radiolabeled thymidine as a measure of inhibition of cell division against the L1210 cells after 4 hr at the concentration of 1.5x10E4M; assay type: functional
Mus musculus [26] = organism: Mus musculus; assay: Evaluated for the percent inhibition uptake of radiolabeled leucine as a measure of inhibition of protein synthesis i.e., cell death against the SV40-transformed 3T3 cells at 4 hr at the concentration of 1Mx10E4 for expt VII; assay type: functional, NIH3T3
Mus musculus [27] = organism: Mus musculus; assay: Evaluated for the percent inhibition uptake of radiolabeled thymidine as a measure of inhibition of cell division against the SV40-transformed 3T3 cells at the concentration of 3*10^-4M after 6 hr; assay type: functional, NIH3T3
Mus musculus [28] = organism: Mus musculus; assay: Evaluated for the percent inhibition uptake of radiolabeled thymidine as a measure of inhibition of cell division against the L1210 cells after 4 hr at the concentration of 3.0x10E4M; assay type: functional
Mus musculus [29] = organism: Mus musculus; assay: Evaluated for the percent inhibition uptake of radiolabeled thymidine as a measure of inhibition of cell division against the SV40-transformed 3T3 cells at the concentration of 3*10^-4M after 4 hr; assay type: functional, NIH3T3
Mus musculus [30] = organism: Mus musculus; assay: Evaluated for the percent inhibition uptake of radiolabeled leucine as a measure of inhibition of protein synthesis i.e., cell death against the SV40-transformed 3T3 cells at 4 hr at the concentration of 6Mx10E4 for expt VII; assay type: functional, NIH3T3
Mus musculus [31] = organism: Mus musculus; assay: Toxicity was evaluated for the compound at a concentration of 0.312 mM against […] Mastocytoma.; assay type: functional
Mus musculus [32] = organism: Mus musculus; assay: Toxicity toward P-815 Mastocytoma cells after 5 hr was determined as percent of [51Cr]- release from labeled cells as a measure of cell death at a concentration of 0.312 mM (expt V); assay type: functional
Mus musculus [33] = organism: Mus musculus; assay: Evaluated for the percent inhibition uptake of radiolabeled thymidine as a measure of inhibition of cell division against the SV40-transformed 3T3 cells at 4 hr at the concentration of 6Mx10E4 for expt VI; assay type: functional, NIH3T3
Mus musculus [34] = organism: Mus musculus; assay: Evaluated for the percent inhibition uptake of radiolabeled leucine as a measure of inhibition of protein synthesis i.e., cell death against the SV40-transformed 3T3 cells at 4 hr at the concentration of 6Mx10E4 for expt VIII; assay type: functional, NIH3T3
Mus musculus [35] = organism: Mus musculus; assay: Evaluated for the percent inhibition uptake of radiolabeled leucine as a measure of inhibition of protein synthesis i.e., cell death against the SV40-transformed 3T3 cells at 4 hr at the concentration of 3Mx10E4 for expt VII; assay type: functional, NIH3T3
Mus musculus [36] = organism: Mus musculus; assay: Evaluated for the percent inhibition uptake of radiolabeled thymidine as a measure of inhibition of cell division against the SV40-transformed 3T3 cells at the concentration of 3*10^-4M after 24 hr; assay type: functional, NIH3T3
Mus musculus [37] = organism: Mus musculus; assay: Cytotoxicity was determined against mouse peritoneal macrophages (MPM) and the percent of LDH released after 24 hr was determined as a measure of cell death at a concentration of 0.561 mM (expt II); assay type: functional
Mus musculus [38] = organism: Mus musculus; assay: Toxicity toward P-815 Mastocytoma cells after 5 hr was determined as percent of [51Cr]- release from labeled cells as a measure of cell death. at a concentration of 0.281 mM. (expt IV); assay type: functional
Mus musculus [39] = organism: Mus musculus; assay: Cytotoxicity was determined against mouse peritoneal macrophages (MPM) and the percent of LDH released after 24 hr was determined as a measure of cell death at a concentration of 0.375 mM (expt I); assay type: functional
Mus musculus [40] = organism: Mus musculus; assay: Toxicity toward P-815 Mastocytoma cells after 5 hr was determined as percent of [51Cr]- release from labeled cells as a measure of cell death. at a concentration of 0.750 mM. (expt III); assay type: functional
Mus musculus [41] = organism: Mus musculus; assay: Cytotoxicity was determined against mouse peritoneal macrophages (MPM) and the percent of LDH released after 24 hr was determined as a measure of cell death at a concentration of 0.375 mM (expt II); assay type: functional
Mus musculus [42] = organism: Mus musculus; assay: Appearance of mouse peritoneal macrophages after 3h of treatment with compound at a concentration of 0.375 mM; OK; assay type: functional, organism-based

O=C(CNC(=O)OCc1ccccc1)N[C@H](Cc1ccccc1)C(=O)N(CCCl)CCCl
Inhibition uptake (Mus musculus [1]): 75%
Inhibition uptake (Mus musculus [2]): 36%
Cr release (Mus musculus [3]): 22%
Inhibition uptake (Mus musculus [4]): 46%
Inhibition uptake (Mus musculus [5]): 86%
Inhibition uptake (Mus musculus [6]): 76%
Inhibition uptake (Mus musculus [7]): 14%
Cr release (Mus musculus [8]): 34%
Inhibition uptake (Mus musculus [9]): 36%
Inhibition uptake (Mus musculus [10]): 61%
Toxicity (Mus musculus [11]): 50 µg/mL
Cr release (Mus musculus [12]): 27%
Inhibition uptake (Mus musculus [13]): 28%
Inhibition uptake (Mus musculus [14]): 12%
Inhibition uptake (Mus musculus [15]): 46%
Inhibition uptake (Mus musculus [16]): 5%
Inhibition uptake (Mus musculus [17]): 60%
Inhibition uptake (Mus musculus [18]): 92%
Inhibition uptake (Mus musculus [19]): 70%
Inhibition uptake (Mus musculus [20]): 90%
Inhibition uptake (Mus musculus [21]): 33%
Cr release (Mus musculus [22]): 29%
Toxicity (Mus musculus [23]): 100 µg/mL
Inhibition uptake (Mus musculus [24]): 7%
Inhibition uptake (Mus musculus [25]): 57%
Inhibition uptake (Mus musculus [26]): -1%
Inhibition uptake (Mus musculus [27]): 83%
Inhibition uptake (Mus musculus [28]): 76%
Inhibition uptake (Mus musculus [29]): 80%
Inhibition uptake (Mus musculus [30]): 36%
Toxicity (Mus musculus [31]): 150 µg/mL
Cr release (Mus musculus [32]): 19%
Inhibition uptake (Mus musculus [33]): 93%
Inhibition uptake (Mus musculus [34]): 83%
Inhibition uptake (Mus musculus [35]): 10%
Inhibition uptake (Mus musculus [36]): 88%

O=C(CNC(=O)OCc1ccccc1)N[C@H](Cc1ccccc1)C(=O)O (Cbz-Gly-[dF]-OH)
LDH release (Mus musculus [37]): 17%
Cr release (Mus musculus [38]): 16%

CCCCCCCCCCCCNCC(F)(F)F
LDH release (Mus musculus [39]): 52%
Cr release (Mus musculus [40]): 15%
LDH release (Mus musculus [41]): 64%
Activity (Mus musculus [42]): OK
